{"source": "patent US12435044B2", "about": "“Pyridazinone herbicides and pyridazinone intermediates used to prepare a herbicide” (FMC Corporation, priority 2018, dated 2025)", "type_in_all_cases": "in vivo", "key": {"[1]": {"system": "barnyardgrass (Echinochloa crus-galli)", "assay": "Test B flooded paddy test", "details": "Flood, 250 g ai/ha", "description": "(§1) Plant species in the flooded paddy test selected from rice (Oryza sativa), sedge, umbrella (small-flower umbrella sedge, Cyperus difformis), duck salad (Heteranthera limosa) and barnyardgrass (Echinochloa crus-galli) were grown to the 2-leaf stage for testing. At time of treatment, test pots were flooded to 3 cm above the soil surface, treated by application of test compounds directly to the paddy water, and then maintained at that water depth for the duration of the test. Treated plants and controls were maintained in a greenhouse for 13 to 15 d, after which time all species were compared to controls and visually evaluated. Plant response ratings, summarized in Table B, are based on a scale of 0 to 100 where 0 is no effect and 100 is complete control. A dash (-) response means no test result."}, "[2]": {"system": "duck salad (Heteranthera limosa)", "assay": "Test B flooded paddy test", "details": "Flood, 250 g ai/ha, Ducksalad", "description": "as §1"}, "rice (Oryza sativa)": {"system": "rice (Oryza sativa)", "assay": "Test B flooded paddy test", "details": "Flood, 250 g ai/ha", "description": "as §1"}, "[3]": {"system": "sedge, umbrella (small-flower umbrella sedge, Cyperus difformis)", "assay": "Test B flooded paddy test", "details": "Flood, 250 g ai/ha", "description": "as §1"}, "[4]": {"system": "sedge, umbrella (small-flower umbrella sedge, Cyperus difformis)", "assay": "Test C flooded paddy test", "details": "Flood, scale 0 to 100", "text": "as §1, with “consisted of” for “selected from”, “(transplanted and water seeded, Oryza” for “(Oryza”, “ducksalad” for “duck salad”, “limosa), Bulrush, Japanese (Scirpus juncoides)” for “limosa)”, “crus-galli)” for “crus-galli) were”, “C” for “B,”"}, "[5]": {"system": "barley, spring (Hordeum vulgare)", "assay": "Test D pre-/postemergence controlled growth environment test", "details": "Postemergence", "text": "(§2) Seeds of plant species selected from blackgrass (Alopecurus myosuroides), galium (catchweed bedstraw, Galium aparine), kochia (Kochia scoparia), oilseed rape (Brassica napus), barley, spring (Hordeum vulgare), wheat, spring (Triticum aestivum), oat, wild (Avena fatua), barley, winter (Hordeum vulgare) and wheat, winter (Triticum aestivum) were planted into a silt loam soil and treated preemergence with test chemicals formulated in a non-phytotoxic solvent mixture which included a surfactant.\n(§3) At the same time, plants selected from these crop and weed species and also bluegrass (annual bluegrass, Poa annua), canarygrass (littleseed canarygrass, Phalaris minor), chickweed (common chickweed, Stellaria media), bromegrass, downy (downy bromegrass, Bromus tectorum), field poppy (Papaver rhoeas), field violet (Viola arvensis), foxtail, green (Setaria viridis), deadnettle (henbit deadnettle, Lamium amplexicaule), ryegrass, Italian (Lolium multiflorum), lambsquarters (Chenopodium album), pigweed (Amaranthus retroflexus), chamomile (scentless chamomile, Matricaria inodora), Russian thistle (Salsola kali), speedwell (bird's-eye speedwell, Veronica persica), buckwheat, wild (Polygonum convolvulus), mustard, wild (Sinapis arvensis), radish, wild (Raphanus raphanistrum), windgrass (Apera spica-venti), geranium, cutleaf (Geranium dissectum) and Canada thistle (Cirsium arvense) were planted in pots containing Redi-Earth® planting medium (Scotts Company, 14111 Scottslawn Road, Marysville, Ohio 43041) comprising spaghnum peat moss, vermiculite, wetting agent and starter nutrients and treated with postemergence applications of the test chemicals formulated in the same manner. Plants ranged in height from 2 to 18 cm (1- to 4-leaf stage). Treated plants and controls were maintained in a controlled growth environment for 14 to 21 d after which time all species were compared to controls and visually evaluated. Plant response ratings, summarized in Table D, are based on a scale of 0 to 100 where 0 is no effect and 100 is complete control. A dash (-) response means no test result."}, "[6]": {"system": "wheat, winter (Triticum aestivum)", "assay": "Test D pre-/postemergence controlled growth environment test", "details": "Postemergence", "text": "as §2, §3"}, "[7]": {"system": "barley, winter (Hordeum vulgare)", "assay": "Test D pre-/postemergence controlled growth environment test", "details": "Postemergence", "text": "as §2, §3"}, "kochia (Kochia scoparia)": {"system": "kochia (Kochia scoparia)", "assay": "Test D pre-/postemergence controlled growth environment test", "details": "Postemergence", "text": "as §2, §3"}, "[8]": {"system": "oilseed rape (Brassica napus)", "assay": "Test D pre-/postemergence controlled growth environment test", "details": "Postemergence", "text": "as §2, §3"}, "[9]": {"system": "wheat, spring (Triticum aestivum)", "assay": "Test D pre-/postemergence controlled growth environment test", "details": "Postemergence", "text": "as §2, §3"}, "[10]": {"system": "blackgrass (Alopecurus myosuroides)", "assay": "Test D pre-/postemergence controlled growth environment test", "details": "Postemergence", "text": "as §2, §3"}, "[11]": {"system": "galium (catchweed bedstraw, Galium aparine)", "assay": "Test D pre-/postemergence controlled growth environment test", "details": "Postemergence", "text": "as §2, §3"}, "oat, wild (Avena fatua)": {"system": "oat, wild (Avena fatua)", "assay": "Test D pre-/postemergence controlled growth environment test", "details": "Postemergence", "text": "as §2, §3"}}, "data": [{"smiles": "Cc1ccc2ccc(F)cc2c1-c1c(O)c(Cl)nn(C)c1=O", "note": "[Cpd. No. 21]", "values": [{"measurement": "Plant response rating (0 to 100 scale)", "setting": "[1]", "result": 80}, {"measurement": "Plant response rating (0 to 100 scale)", "setting": "[2]", "result": 90}, {"measurement": "Plant response rating (0 to 100 scale)", "setting": "rice (Oryza sativa)", "result": 35}, {"measurement": "Plant response rating (0 to 100 scale)", "setting": "[3]", "result": 90}, {"measurement": "Plant response rating, Sedge, Umbrella", "setting": "[4]; 31 g ai/ha", "result": 0}, {"measurement": "Plant response rating, Sedge, Umbrella", "setting": "[4]; 62 g ai/ha", "result": 0}, {"measurement": "Plant response rating, Sedge, Umbrella", "setting": "[4]; 125 g ai/ha", "result": 0}, {"measurement": "Plant response rating, Sedge, Umbrella", "setting": "[4]; 250 g ai/ha", "result": 0}]}, {"smiles": "Cc1ccc2ccc(Cl)cc2c1-c1c(O)c(Cl)nn(C)c1=O", "note": "[Cpd. No. 22]", "values": [{"measurement": "Plant response rating, Barley, Spring", "setting": "[5]; 31 g ai/ha", "result": 67}, {"measurement": "Plant response rating, Barley, Spring", "setting": "[5]; 62 g ai/ha", "result": 85}, {"measurement": "Plant response rating, Wheat, Winter", "setting": "[6]; 31 g ai/ha", "result": 85}, {"measurement": "Plant response rating, Wheat, Winter", "setting": "[6]; 62 g ai/ha", "result": 95}, {"measurement": "Plant response rating, Barley, Winter", "setting": "[7]; 31 g ai/ha", "result": 47}, {"measurement": "Plant response rating, Barley, Winter", "setting": "[7]; 62 g ai/ha", "result": 73}, {"measurement": "Plant response rating, Kochia", "setting": "kochia (Kochia scoparia); 31 g ai/ha", "result": 37}, {"measurement": "Plant response rating, Kochia", "setting": "kochia (Kochia scoparia); 62 g ai/ha", "result": 58}, {"measurement": "Plant response rating, Oilseed Rape", "setting": "[8]; 31 g ai/ha", "result": 73}, {"measurement": "Plant response rating, Oilseed Rape", "setting": "[8]; 62 g ai/ha", "result": 90}, {"measurement": "Plant response rating, Wheat, Spring", "setting": "[9]; 31 g ai/ha", "result": 90}, {"measurement": "Plant response rating, Wheat, Spring", "setting": "[9]; 62 g ai/ha", "result": 96}, {"measurement": "Plant response rating, Blackgrass", "setting": "[10]; 31 g ai/ha", "result": 75}, {"measurement": "Plant response rating, Blackgrass", "setting": "[10]; 62 g ai/ha", "result": 82}, {"measurement": "Plant response rating, Galium", "setting": "[11]; 31 g ai/ha", "result": 92}, {"measurement": "Plant response rating, Galium", "setting": "[11]; 62 g ai/ha", "result": 96}, {"measurement": "Plant response rating, Oat, Wild", "setting": "oat, wild (Avena fatua); 31 g ai/ha", "result": 93}, {"measurement": "Plant response rating, Oat, Wild", "setting": "oat, wild (Avena fatua); 62 g ai/ha", "result": 98}, {"measurement": "Plant response rating (0 to 100 scale)", "setting": "[1]", "result": 40}, {"measurement": "Plant response rating (0 to 100 scale)", "setting": "[2]", "result": 90}, {"measurement": "Plant response rating (0 to 100 scale)", "setting": "rice (Oryza sativa)", "result": 60}, {"measurement": "Plant response rating (0 to 100 scale)", "setting": "[3]", "result": 85}]}]}
